From US6994983B2, “Kits for determination of thromboxane B2 metabolite and optimizing aspirin dosage” (Esoterix, Inc. Coagulation, priority 1999, dated 2006)
Where “and” joins values, the source holds several entries; their conditions need not be identical. Equal entries are not always repeated.

Tests used:
[1] = in vivo; cited from earlier work
platelet reactivity = settings: cited from earlier work
[2] = test system: platelet suppression response; settings: patients on aspirin therapy; cited from earlier work
[3] = test system: 11-dehydro thromboxane B2; test: Urine 11-dehydro thromboxane B2 (PURR) after one-week interventions with purple grape juice, vitamin E and aspirin; type: in vivo, human; settings: for Mean post-intervention PURR: one week each: purple grape juice controlled daily volumes, mean baseline 1105; for Mean post-intervention PURR / % Change of PURR vs mean baseline: vitamin E 400 international units per day, aspirin 650 mg per day; for % Change of PURR vs mean baseline: one week each: purple grape juice; for effect upon urinary excretion of 11-dehydro thromboxane B2: one-week interventions, in words
Experimental: 11-dehydro thromboxane B2, a stable metabolite of platelet-specific cyclooxygenase activity, in urine specimens from 29 individuals was measured. Participants were instructed to drink controlled daily volumes of purple grape juice, 400 international units per day of vitamin E, and 650 mg per day of aspirin. Each intervention was given in one-week intervals separated by a one-week washout period. The metabolite was measured in baseline, post-intervention, and post-washout urine specimens and the results were expressed as platelet urinary response ratios (PURR) based upon pg 11-dehydrothromboxane B2/mg creatinine.

[4] = single dose of 325 mg; cited from earlier work
[5] = cited from earlier work
11-dehydro TXB2 [6] = test: 11-dehydro TXB2 in random urine of aspirin users and non-users (acetylcholinesterase-linked immunoassay); type: in vivo, human; settings: 45 people taking at least 81 mg/day; non-aspirin users 2080
Experimental: Random urine specimens were collected from 65 individuals who had avoided aspirin for at least two weeks and from 45 individuals who were taking 81 or 325 mg/day by prescription. Each specimen was assayed for 11-dehydro-TXB2. Specimens were assayed at two dilutions using acetylcholinesterase-linked immunoassay. The results were tested for parallelism and averaged. Urine creatinine was assayed using the Jaffe picrate reaction. To normalize for urinary output, results were expressed in pg 11-dehydro TXB2/mg creatinine. Results of all populations were compared using the student t-test. Within-day variation is 30% and day-to-day variation 20%.
11-dehydrothromboxane B2 (11-de-H-TXB2), a stable metabolite of platelet activation was measured in random urine specimens from 65 people who were not taking aspirin and 45 who were taking at least 81 mg/day. The means for non-aspirin users was 2080 pg 11-de-H-TXB2/mg creatinine, and for aspirin users was 523, p.<0.0000.1. Receiver-operating characteristic analysis yields an optimum decision point of 1000 pg 11-de-H-TXB2 in random urine may be used to document aspirin's platelet-suppressive effects and to identify individuals who may not achieve antithrombotic benefits.

platelet aggregation [7] = settings: cited from earlier work
[8] = in vivo; cited from earlier work; remark: listed apart in the source
11-dehydro TXB2 [9] = test: Platelet urinary response ratio (PURR), aspirin therapy vs non-users, reformulated buffer; type: in vivo, human
Source text: The PURRs generated in the 11-dehydro thromboxane B2 assay in the present example were higher than those generated in subsequent studies. The average reduction after the investigators initial assay was 60%. This change was a result of a reformulation of the reagent buffer. Reformation of the buffer was made by the supplier, Cayman Chemical Corporation. The initial buffer was thought to be a phosphate saline buffer. The reformatted buffer is an alpha diethanolamine buffer. […] The buffer change was made to convert any lactone form present in the same urine to the free acid form of the thromboxane. The current procedure requires a two-hour pre-incubation of the urine sample in the diethanolamine buffer in order to allow for the conversion of the forms before pipetting to the plate. The new decision point for the assay is 400 PURR units, down from the original 1000.
To normalize for urinary output, results are expressed as platelet urinary response ratio (PURR) based upon pg 11-dehydro TXB2/g creatinine. Results of all populations were compared using the student t-test.

serum TXB2 = settings: 3 mg of aspirin per day, healthy volunteers; cited from earlier work
[10] = smokers after partial ileal bypass surgery reporting even infrequent aspirin use; 45.2% with no aspirin use; cited from earlier work
11-dehydro TXB2 [11] = test: Crossover study: urine 11-dehydro TXB2 before and 24 hours after one 81 or 325 mg aspirin tablet in 24 healthy individuals; type: in vivo, human; settings: for mean reduction of 11-dehydro TXB2 / PURR: healthy non-aspirin users
Experimental: In a crossover study, 24 healthy individuals who had avoided aspirin for a minimum of 10 days collected random baseline urine specimens. They then took one 81 or 325 mg tablet at 8:00 a.m. and collected a second urine specimen 24 hours after the aspirin was taken. Following a two-week washout period dosages were reversed and another baseline and 24-hours post-aspirin specimen was collected.
In a crossover study, twenty-four healthy individuals who had avoided aspirin for a minimum of ten days collected random baseline urine specimens. They then took one 81 or 325 mg tablet at 8:00 AM and collected a second urine specimen 24 hours after the aspirin was taken. Following a 2-week washout period dosages were reversed and another baseline and 24-hours post-aspirin specimen was collected.

platelet aggregation [12] = settings: intermittent claudication, 100 mg aspirin/day, at any given time; cited from earlier work
[13] = patients with prior acute myocardial infarction or stroke; cited from earlier work

Molecule: CCCCCC(O)C=CC1OC(=O)CC(O)C1CC=CCCCC(=O)O (stereo not shown) [11-dehydro TXB2, 11-dehydro thromboxane B2]
- plasma half-life [1]: 45 min

Molecule: CC(=O)Oc1ccccc1C(=O)O [Aspirin, acetyl salicylic acid]
- subjects with immediate suppression of platelet reactivity (platelet reactivity; 500 mg three times per day, upon initial administration): 90%
- secondary aspirin non-responders with myocardial infarct, repeat stroke, or vascular death (platelet reactivity; 24-month period following discharge): 40%
- remaining subjects with major endpoints (platelet reactivity; 114 remaining subjects, 24-month period): 4.4%
- individuals with aspirin resistance / less than adequate platelet suppression response [2]: up to 20%
- Mean post-intervention PURR [3]: 379.7 PURR
- % Change of PURR vs mean baseline [3]: −65.6%
- effect upon urinary excretion of 11-dehydro thromboxane B2 [3]: large and statistically significant effect
- duration of effect on platelet laboratory assays [4]: six to ten
- reduction of the morning peak of infarction ([5]; between 4 and 10 a.m., 325 mg every other day): 59.3%
- mean reduction in the incidence of first myocardial infarction ([5]; healthy men, 325 mg every other day, vs placebo): 44.8%
- thrombotic events prevented, average ([5]; healthy men): four
- mean 11-de-H-TXB2 in random urine of aspirin users (11-dehydro TXB2 [6]): 523 pg 11-de-H-TXB2/mg creatinine
- patients with only partial inhibition of platelet aggregation (platelet aggregation [7]; atrial fibrillation, 325 mg enteric coated aspirin per day): seven of 17
- patients with restoration of platelet aggregation (aspirin resistance) (platelet aggregation [7]; previous ischemic stroke, escalation to 1300 mg/day): 8.2%
- relative risk for hemorrhagic stroke [8]: 4 ×
- relative risk of ischemic stroke [8]: 1.6 ×
- Mean PURR, aspirin therapy (11-dehydro TXB2 [9]; 81 to 325 mg/day, N 98, aspirin non-users 1147): 297 PURR units
- individuals identified as potential non-responders (11-dehydro TXB2 [9]; aspirin users, decision points 400 / 500 pg 11-dehydro-TXB2/mg creatinine): 13%
- reduction of serum TXB2 levels compared to placebo (serum TXB2): 39%
- overall mortality rate [10]: 10.4%
- % Inhibition (81) (11-dehydro TXB2 [11]; 81 mg aspirin, urine 11-dehydro TXB2 24 hours post-dose vs baseline, individual subjects 3, 8, 12, 14, 17, 18, 24 with weak response): 60% and 78% and 46% and 48% and 70% and 17% and 10%
- mean reduction of 11-dehydro TXB2 / PURR (11-dehydro TXB2 [11]; 81 mg/day): 68%
- % Inhibition (325) (11-dehydro TXB2 [11]; 325 mg aspirin, urine 11-dehydro TXB2 24 hours post-dose vs baseline, individual subjects 3, 8, 12, 14, 17, 18, 24 with weak response): 44% and 40% and 82% and 83% (2×) and 46% and 38%
- mean reduction of 11-dehydro TXB2 / PURR (11-dehydro TXB2 [11]; 325 mg/day): 76%
- individuals with a less than 50% response to either 81 mg or 325 mg of aspirin (11-dehydro TXB2 [11]; crossover study, seven individuals): 30%
- males with complete inhibition of aggregation (platelet aggregation [12]): 40%
- new thrombotic events prevented [13]: up to 40 per thousand treated

Molecule: Vitamin E
- Mean post-intervention PURR [3]: 1293.1 PURR
- % Change of PURR vs mean baseline [3]: +14.3%
- effect upon urinary excretion of 11-dehydro thromboxane B2 [3]: no measurable effect
